Data taken from patent US20260325685A1, “Radiopharmaceutical Compositions Targeting Carbonic Anhydrase IX and Uses Thereof” (RayzeBio, Inc., priority 2023, published 2026).
Read-outs that look alike come from different tables or passages of the source.

Key:
human CA-XII = target: T1, human CA-XII (Homo sapiens, UniProt O43570); test: Surface Plasmon Resonance (SPR) binding kinetics to recombinant human CA-XII (Biacore 8K, single-cycle kinetics, 1:1 binding model)
T1 construct: purchased Creative BioMart CA12-261H
Experimental: (§1) G1. Surface Plasmon Resonance Assay Conditions for hCA-IX and hCA-XII
(§2) Surface Plasmon Resonance (SPR) experiments were conducted on a Biacore 8K instrument (Cytiva, Marlborough, MA) to determine the binding kinetics of the compound to recombinant human CA-IX (Acro, CA9-H82E3) and CA-XII (Creative BioMart, CA12-261H) proteins. The ligands were diluted to 10 μg/mL in PBS-P+ buffer (20 mM phosphate buffer, pH 7.4, with 2.7 mM KCl, 137 mM NaCl, and 0.05% Tween 20) and captured on Series S Streptavidin Sensor Chips (Cytiva, 29699621) to 1200-1800 response units (RU) using a flow rate of 5 μL/min and injection times of 180 seconds for human CA-IX and 75 seconds for human CA-XII. Analyte binding was evaluated using a single-cycle kinetics method over 9 analyte concentrations (100-0.39 nM) in PBS-P+ buffer with 1% DMSO using a 50 μL/min. flow rate, 120 second association time, and 1200 second dissociation time. The flow cell temperature was set to 25° C. Analyte binding curves were fit to a 1:1 binding kinetic model in Biacore Insight Evaluation software (version 4.0.8.20368) following reference flow cell subtraction and DMSO correction to derive the association and dissociation binding constants.

human CA-IX = target: T2, human CA-IX (Homo sapiens, UniProt Q16790); test: Surface Plasmon Resonance (SPR) binding kinetics to recombinant human CA-IX (Biacore 8K, single-cycle kinetics, 1:1 binding model)
T2 construct: purchased Acro CA9-H82E3
Experimental: as §1, §2

[1] = Chelated Metal: Lu-175, 25° C., pH 7.4, read-out: CAXII KD
[2] = Chelated Metal: Lu-175; SPR, 25° C., pH 7.4; read-out: CAIX KD
[3] = read-out: CAXII KD, Chelated Metal: Lu-175, 25° C., pH 7.4
[4] = read-out: CAIX KD; Chelated Metal: Lu-175; SPR, 25° C., pH 7.4

T1 sequence (O43570 25-354): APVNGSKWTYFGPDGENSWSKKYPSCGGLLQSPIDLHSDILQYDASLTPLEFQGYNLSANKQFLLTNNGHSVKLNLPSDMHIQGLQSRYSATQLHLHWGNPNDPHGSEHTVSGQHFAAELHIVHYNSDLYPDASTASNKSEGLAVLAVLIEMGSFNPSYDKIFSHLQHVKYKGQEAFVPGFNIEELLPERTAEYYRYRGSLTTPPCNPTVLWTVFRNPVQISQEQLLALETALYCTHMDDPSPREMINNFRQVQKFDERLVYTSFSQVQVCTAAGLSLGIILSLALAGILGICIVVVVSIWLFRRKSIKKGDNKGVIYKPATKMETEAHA

Row | Compound | Kd (human CA-XII; [1]) [nM] | Kd (human CA-IX; [2]) [nM] | Kd (human CA-XII; [3]) [nM] | Kd (human CA-IX; [4]) [nM]
1 | NS(=O)(=O)c1nnc(NC(=O)C23CC(c4cn(CCNC(=O)[C@@H]5CN(C(=O)CN6CCN(CC(=O)O)CCN(CC(=O)O)CCN(CC(=O)O)CC6)CCN5C(=O)CNC(=O)C5(C(=O)O)CCN(C(=O)Cc6n[nH]c7ccccc67)CC5)nn4)(C2)C3)s1.[Lu+3] [Compound 112.6] | > 10 | 1 to 2.5 | – | –
2 | CC(CCC(=O)N[C@@H](CC(=O)N[C@@H](CCC(=O)NC1(C(=O)NCCOCCOCCNC(=O)CN2CCN(CC(=O)O)CCN(CC(=O)O)CCN(CC(=O)O)CC2)CCN(C(=O)Cn2cc(CCCC(=O)Nc3nnc(S(N)(=O)=O)s3)nn2)CC1)C(=O)O)C(=O)O)(c1ccc(O)cc1)c1ccc(O)cc1.[Lu+3] [Compound 103.2] | 2.5 to 10 | 1 to 2.5 | – | –
3 | CC(CCCC(=O)N1CCC(C(N)=O)(C(=O)NCC(=O)NC2(C(=O)NCCn3nnc(C45CC(C(=O)Nc6nnc(S(N)(=O)=O)s6)(C4)C5)c3C(N)=O)CCN(C(=O)CN3CCN(CC(=O)O)CCN(CC(=O)O)CCN(CC(=O)O)CC3)CC2)CC1)(c1ccc(O)cc1)c1ccc(O)cc1.[Lu+3] [Compound 136] | – | – | > 10 | < 1
4 | NS(=O)(=O)c1nnc(NC(=O)C23CC(c4cn(CCNC(=O)[C@@H]5CN(C(=O)CN6CCN(CC(=O)O)CCN(CC(=O)O)CCN(CC(=O)O)CC6)CCN5C(=O)C[C@H](NC(=O)C[C@H](NC(=O)c5ccc(C6CC6)cn5)C(=O)O)C(=O)O)nn4)(C2)C3)s1.[Lu+3] [Compound 109.19] | 1 to 2.5 | < 1 | – | –
5 | NS(=O)(=O)c1nnc(NC(=O)C23CC(c4cn(CCNC(=O)[C@@H]5CN(C(=O)CN6CCN(CC(=O)O)CCN(CC(=O)O)CCN(CC(=O)O)CC6)CCN5C(=O)C[C@H](NC(=O)C[C@H](NC(=O)CCC56CCC(CC5)C6)C(=O)O)C(=O)O)nn4)(C2)C3)s1.[Lu+3] [Compound 109.9] | 1 to 2.5 | < 1 | – | –
6 | CC(CCC(=O)N[C@@H](CC(=O)N[C@@H](CC(=O)N1CCN(C(=O)CN2CCN(CC(=O)O)CCN(CC(=O)O)CCN(CC(=O)O)CC2)C[C@H]1C(=O)NCCn1cc(C23CC(c4cn5nc(S(N)(=O)=O)sc5n4)(C2)C3)nn1)C(=O)O)C(=O)O)(c1ccc(O)cc1)c1ccc(O)cc1.[Lu+3] [Compound 107.27] | < 1 | < 1 | – | –
7 | Cc1cc(C(=O)Nc2nnc(S(N)(=O)=O)s2)ccc1-c1cn(CCNC(=O)[C@@H]2CN(C(=O)CN3CCN(CC(=O)O)CCN(CC(=O)O)CCN(CC(=O)O)CC3)CCN2C(=O)C[C@H](NC(=O)C[C@H](NC(=O)CCC(C)(c2ccc(O)cc2)c2ccc(O)cc2)C(=O)O)C(=O)O)nn1.[Lu+3] [Compound 107.35] | > 10 | < 1 | – | –
8 | CC(CCC(=O)N[C@@H](CC(=O)N[C@@H](CC(=O)N1CCN(C(=O)CN2CCN(CC(=O)O)CCN(CC(=O)O)CCN(CC(=O)O)CC2)C[C@H]1C(=O)NCCn1cc(-c2ccc(C(=O)Nc3nnc(S(N)(=O)=O)s3)cc2Cl)nn1)C(=O)O)C(=O)O)(c1ccc(O)cc1)c1ccc(O)cc1.[Lu+3] [Compound 107.36] | > 10 | < 1 | – | –
9 | NS(=O)(=O)c1nnc(NC(=O)C23CCC(c4cn(CCNC(=O)[C@@H]5CN(C(=O)CN6CCN(CC(=O)O)CCN(CC(=O)O)CCN(CC(=O)O)CC6)CCN5C(=O)CC[C@H](NC(=O)C[C@H](NC(=O)c5coc(C(F)(F)F)n5)C(=O)O)C(=O)O)nn4)(CC2)CC3)s1.[Lu+3] [Compound 109.59] | < 1 | < 1 | – | –
10 | CC(CCC(=O)N[C@@H](CC(=O)N[C@@H](CC(=O)N1CCN(C(=O)CN2CCN(CC(=O)O)CCN(CC(=O)O)CCN(CC(=O)O)CC2)C[C@H]1C(=O)NCCn1cc(C23CC(C(=O)Nc4nnc(S(N)(=O)=O)s4)(C2)C3)nn1)C(=O)O)C(=O)O)(c1ccccc1)c1ccc(O)cc1.[Lu+3] (some centres unmarked) [Compound 109.33] | > 10 | 1 to 2.5 | – | –
11 | NS(=O)(=O)c1nnc(NC(=O)C23CC(c4cn(CCNC(=O)[C@@H]5CN(C(=O)CN6CCN(CC(=O)O)CCN(CC(=O)O)CCN(CC(=O)O)CC6)CCN5C(=O)C[C@H](NC(=O)C[C@H](NC(=O)c5ccc(C(F)(F)F)cc5)C(=O)O)C(=O)O)nn4)(C2)C3)s1.[Lu+3] [Compound 109.35] | 2.5 to 10 | 1 to 2.5 | – | –
12 | NC(=O)C1(C(=O)NCC(=O)N2CCN(C(=O)CN3CCN(CC(=O)O)CCN(CC(=O)O)CCN(CC(=O)O)CC3)C[C@H]2C(=O)NCCn2cc(C34CC(C(=O)Nc5nnc(S(N)(=O)=O)s5)(C3)C4)nn2)CCN(C(=O)CCn2nc(-c3ccc(O)cc3)c3ccc(O)cc32)CC1.[Lu+3] [Compound 107.52] | > 10 | 1 to 2.5 | – | –
13 | NS(=O)(=O)c1nnc(NC(=O)C23CC(c4cn(CCNC(=O)[C@@H]5CN(C(=O)CN6CCN(CC(=O)O)CCN(CC(=O)O)CCN(CC(=O)O)CC6)CCN5C(=O)CNC(=O)C5(C(=O)O)CCN(C(=O)Cc6ccc7cn[nH]c7c6)CC5)nn4)(C2)C3)s1.[Lu+3] [Compound 112.1] | > 10 | 2.5 to 10 | – | –
14 | CC(CCC(=O)N[C@@H](CC(=O)N[C@@H](CC(=O)N1CCN(C(=O)CN2CCN(CC(=O)O)CCN(CC(=O)O)CCN(CC(=O)O)CC2)C[C@H]1C(=O)NCCn1cc(C23CC(C(=O)Nc4nnc(S(N)(=O)=O)s4)(C2)C3)nn1)C(=O)O)C(=O)O)(c1ccc(O)cc1)c1ccc(O)cc1.[Lu+3] [Compound 106] | – | – | 2.5 to 10 | < 1
15 | CC(CCC(=O)N[C@@H](CC(=O)N[C@@H](CCC(=O)N1CCN(C(=O)CN2CCN(CC(=O)O)CCN(CC(=O)O)CCN(CC(=O)O)CC2)C[C@H]1C(=O)NCCn1cc(C23CC(C(=O)Nc4nnc(S(N)(=O)=O)s4)(C2)C3)nn1)C(=O)O)C(=O)O)(c1ccc(O)cc1)c1ccc(O)cc1.[Lu+3] [Compound 107.39] | > 10 | < 1 | – | –
16 | NS(=O)(=O)c1nnc(NC(=O)C23CC(c4cn(CCNC(=O)[C@H]5CNCCN5C(=O)[C@H](CCCCNC(=O)CN5CCN(CC(=O)O)CCN(CC(=O)O)CCN(CC(=O)O)CC5)NC(=O)CC[C@H](NC(=O)CCC5CCCCC5)C(=O)O)nn4)(C2)C3)s1.[Lu+3] [Compound 118] | – | – | 2.5 to 10 | 1 to 2.5
17 | CC(CCCC(=O)N1CCOC[C@H]1C(=O)N[C@@H](CC(=O)N1CCN(C(=O)CN2CCN(CC(=O)O)CCN(CC(=O)O)CCN(CC(=O)O)CC2)C[C@H]1C(=O)NCCn1cc(C23CC(C(=O)Nc4nnc(S(N)(=O)=O)s4)(C2)C3)nn1)C(=O)O)(c1ccc(O)cc1)c1ccc(O)cc1.[Lu+3] [Compound 107.29] | > 10 | < 1 | – | –
18 | Cc1cc(C2CC2)ccc1C(=O)N[C@@H](CC(=O)N[C@@H](CC(=O)N1CCN(C(=O)CN2CCN(CC(=O)O)CCN(CC(=O)O)CCN(CC(=O)O)CC2)C[C@H]1C(=O)NCCn1cc(C23CC(C(=O)Nc4nnc(S(N)(=O)=O)s4)(C2)C3)nn1)C(=O)O)C(=O)O.[Lu+3] [Compound 109.30] | 2.5 to 10 | < 1 | – | –
19 | CC(CCCC(=O)N1CCC(C(=O)O)(C(=O)NCC(=O)N[C@@H](CCCCn2cc(C34CCC(C(=O)Nc5nnc(S(N)(=O)=O)s5)(CC3)CC4)nn2)C(=O)NCCOCCOCCNC(=O)CN2CCN(CC(=O)O)CCN(CC(=O)O)CCN(CC(=O)O)CC2)CC1)(c1ccc(O)cc1)c1ccc(O)cc1.[Lu+3] [Compound 102.5] | 2.5 to 10 | < 1 | – | –
20 | CC(CCCC(=O)N1CCC(C(N)=O)(C(=O)NCC(=O)NC2(C(=O)NCCn3cc(C45CC(C(=O)Nc6nnc(S(N)(=O)=O)s6)(C4)C5)nn3)CCN(C(=O)CCOCCOCCOCCOCCOCCOCCOCCOCCNC(=O)CN3CCN(CC(=O)O)CCN(CC(=O)O)CCN(CC(=O)O)CC3)CC2)CC1)(c1ccc(O)cc1)c1ccc(O)cc1.[Lu+3] [Compound 129.5] | > 10 | < 1 | – | –
21 | NS(=O)(=O)c1nnc(CC(=O)C23CC(c4cn(CCNC(=O)[C@H]5COCCN5C(=O)CC[C@H](NC(=O)[C@H](CCCCNC(=O)CN5CCN(CC(=O)O)CCN(CC(=O)O)CCN(CC(=O)O)CC5)NC(=O)CCC5CCCCC5)C(=O)O)nn4)(C2)C3)s1.[Lu+3] [Compound 118.1] | > 10 | 1 to 2.5 | – | –
22 | CC(CCC(=O)N1CCNC[C@H]1C(=O)N[C@@H](CC(=O)N1CCN(C(=O)CN2CCN(CC(=O)O)CCN(CC(=O)O)CCN(CC(=O)O)CC2)C[C@@H]1C(=O)NCCn1cc(C23CC(C(=O)Nc4nnc(S(N)(=O)=O)s4)(C2)C3)nn1)C(N)=O)(c1ccc(O)cc1)c1ccc(O)cc1.[Lu+3] [Compound 108.3] | > 10 | 2.5 to 10 | – | –
23 | NS(=O)(=O)c1nnc(NC(=O)C23CCC(c4cn(CCNC(=O)[C@@H]5CN(C(=O)CN6CCN(CC(=O)O)CCN(CC(=O)O)CCN(CC(=O)O)CC6)CCN5C(=O)CC[C@H](NC(=O)C[C@H](NC(=O)CCC(F)(F)F)C(=O)O)C(=O)O)nn4)(CC2)CC3)s1.[Lu+3] [Compound 109.53] | < 1 | < 1 | – | –
24 | NS(=O)(=O)c1nnc(NC(=O)C23CC(c4cn(CCNC(=O)[C@@H]5CN(C(=O)CN6CCN(CC(=O)O)CCN(CC(=O)O)CCN(CC(=O)O)CC6)CCN5C(=O)C[C@H](NC(=O)C[C@H](NC(=O)CCC5CCCCCC5)C(=O)O)C(=O)O)nn4)(C2)C3)s1.[Lu+3] [Compound 109.2] | 1 to 2.5 | < 1 | – | –
25 | CC(CCCC(=O)N1CCC(C(N)=O)(C(=O)NCC(=O)NC2(C(=O)NCCn3cc(C45CCC(C(=O)Nc6nnc(S(N)(=O)=O)s6)(CC4)CC5)nn3)CCN(C(=O)CN3CCN(CC(=O)O)CCN(CC(=O)O)CCN(CC(=O)O)CC3)CC2)CC1)(c1ccc(O)cc1)c1ccc(O)cc1.[Lu+3] [Compound 117.6] | 1 to 2.5 | < 1 | – | –
